Measurements published in patent US7223791B2, “Function regulator for retinoid relative receptor” (Takeda Pharmaceutical Company Limited, priority 2001, dated 2007).

What was measured:
KKA^y mice = experiment: Glucose-lowering and lipid-lowering (triglyceride-lowering) actions in mice; type: in vivo; conditions: test compound 0.01% in powdery diet for four days, non-administration group taken as 100%; for glucose-lowering action (%): reduction percent of blood glucose level; for lipid-lowering action (%): reduction percent of blood triglyceride level
Excerpt: Glucose-Lowering and Lipid-Lowering (Triglyceride-Lowering) Actions in Mice
Test compounds were mixed in a powdery diet (CE-2, Japan Clea) at the proportion of 0.01%, and freely given to KKA^y mice (9 to 12 weeks old, 5 mice per group), a model of obesity-non-insulin dependent diabetes mellitus (type 2 diabetes mellitus), for four days. During this period, water was given freely. Blood was sampled from orbital venous plexus, and glucose and triglyceride levels in plasma separated from the blood were determined enzymatically using L type Wako Glu2 (Wako Pure Chemical Industries, Ltd.) or L type Wako TG-H (Wako Pure Chemical Industries, Ltd.), respectively. The results are given in [Table 1].
In the Table, “glucose-lowering action (%)” represents a reduction percent (%) of the blood glucose level in a test compound administration group when the blood glucose level in a test compound non-administration group is taken as 100%. In addition, “lipid-lowering action (%)” represents a reduction percent (%) of the blood triglyceride level in the test compound administration group when the blood triglyceride level in the test compound non-administration group is taken as 100%.

PPARγ-RXRα heterodimer = molecular target: T1, PPARγ-RXRα heterodimer (Homo sapiens, UniProt P19793+P37231); experiment: PPARγ-RXRα heterodimer ligand activity (luciferase reporter, PPARγ:RXRα:4ERPP/CHO-K1 cells); type: cell-based; conditions: 48 hrs, concentration for 50% of the maximum fold induction
T1 construct: 1.4 kb DNA fragment containing PPARγ gene was recovered from the gel; 1.4 kb DNA fragment containing RXRα gene was recovered from the gel; expressed in transfected cells
T1 sequence (P37231 1-477 isoform P37231-2): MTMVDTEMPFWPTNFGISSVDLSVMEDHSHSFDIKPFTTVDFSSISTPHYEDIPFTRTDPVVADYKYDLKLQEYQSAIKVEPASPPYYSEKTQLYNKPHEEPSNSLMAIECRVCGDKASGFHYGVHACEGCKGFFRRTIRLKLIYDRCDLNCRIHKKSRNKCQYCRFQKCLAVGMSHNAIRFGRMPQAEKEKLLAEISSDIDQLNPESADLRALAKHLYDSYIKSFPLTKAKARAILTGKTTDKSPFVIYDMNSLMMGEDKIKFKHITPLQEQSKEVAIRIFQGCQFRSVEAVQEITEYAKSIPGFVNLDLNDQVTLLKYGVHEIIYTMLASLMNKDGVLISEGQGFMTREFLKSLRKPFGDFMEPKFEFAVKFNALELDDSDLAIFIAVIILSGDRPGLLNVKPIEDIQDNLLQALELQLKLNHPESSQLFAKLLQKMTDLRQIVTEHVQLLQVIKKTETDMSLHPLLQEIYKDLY
T1 sequence (P19793 1-462): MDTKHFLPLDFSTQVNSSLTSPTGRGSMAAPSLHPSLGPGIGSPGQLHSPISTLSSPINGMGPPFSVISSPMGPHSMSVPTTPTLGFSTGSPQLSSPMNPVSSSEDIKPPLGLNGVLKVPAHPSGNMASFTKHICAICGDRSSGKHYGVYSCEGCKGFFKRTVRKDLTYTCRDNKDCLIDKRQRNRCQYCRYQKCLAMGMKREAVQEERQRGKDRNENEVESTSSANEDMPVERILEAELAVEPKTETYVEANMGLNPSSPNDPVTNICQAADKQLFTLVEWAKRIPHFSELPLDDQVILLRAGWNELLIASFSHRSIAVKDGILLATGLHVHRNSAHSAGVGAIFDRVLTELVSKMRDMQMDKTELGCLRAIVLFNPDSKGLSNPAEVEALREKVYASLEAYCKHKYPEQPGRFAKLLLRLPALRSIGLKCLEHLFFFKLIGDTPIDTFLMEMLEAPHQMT
Procedure: (PPARγ-RXRα Heterodimer Ligand Activity)
PPARγ: RXRα: 4ERPP/CHO-K1 cells obtained in the following Reference Example 5 were cultured in HAM F12 medium (manufactured by NISSUI SEIYAKU) containing 10% fetal bovine serum [manufactured by Life Technologies, Inc., USA], seeded in a 96-well white plate [manufactured by Corning Coster Corporation, USA] at the density of 2×10^4 cells/well and cultured in a CO2 gas incubator at 37° C. overnight.
After washing the 96-well white plate with PBS (Phosphate-buffered saline), 90 μl of HAM F12 medium containing 0.1% fatty acid-free bovine serum albumin (BSA) and 10 μl of test compound were added, and the cells were cultured in a CO2 gas incubator at 37° C. for 48 hrs. The medium was removed and 40 μl of PicaGene 7.5 (manufactured by Wako Pure Chemical Industries, Ltd.) was added. After stirring, the luciferase activity was determined using Lumistar [manufactured by BMG Labtechnologies GmbH, Germany].
The fold induction was calculated from the luciferase activity of each test compound when the luciferase activity of the test compound non-administration group is taken as 1. The values of the test compound concentration and the fold induction were analyzed using PRISM 2.01 (produced by GraphPad Software Inc. USA) to calculate the EC50 values, the concentration of a test compound for 50% of the maximum fold induction. The results are shown in [Table 2].
Introduction of Human PPARγ- and RXRα-Expression Plasmid and Reporter Plasmid into CHO-K1 Cell as Well as Establishment of Expressed Cell
A CHO-K1 cell cultured in a tissue culture flask (750 ml) [produced by Corning Costar Corporation, USA] containing HAM F12 medium (produced by NISSUI SEIYAKU) supplemented with 10% fetal bovine serum [produced by Life Technologies, Inc., USA] was scraped by treating with 0.5 g/L trypsin-0.2 g/L EDTA (ethylenediamine tetraacetate) [produced by Life Technologies, Inc., USA], and then the cell was washed with PBS (Phosphate-buffered saline)[produced by Life Technologies, Inc., USA], centrifuged (1000 rpm, 5 minutes) and suspended in PBS. Subsequently, DNA was introduced into the cell under the conditions shown below using GENE PULSER (produced by Bio-Rad Laboratories, USA).
Namely, to a cuvette having a 0.4 cm gap were added 8×10^6 cells and 10 μg of plasmid pVgRXR2-hPPARγ obtained in Reference Example 3 and 10 μg of reporter plasmid pGL3-4ERPP-TK neo obtained in Reference Example 4, which was subjected to electroporation at the voltage of 0.25 kV under the capacitance of 960 μF. Subsequently, the cell was transferred into a HAM F12 medium containing 10% fetal bovine serum and cultured for 24 hours, and then the cell was scraped again and centrifuged, and then suspended in HAM F12 medium containing 10% fetal bovine serum supplemented with 500 μg/ml of Geneticin [produced by Life Technologies, Inc., USA] and 250 μg/ml of Zeocin (produced by Invitrogen, USA). The obtained suspension was diluted to the density of 10^4 cells/ml and inoculated in a 96-well plate [produced by Corning Costar Corporation, USA], which was cultured in a CO2 gas incubator at 37° C., whereby obtaining a Geneticin- and Zeocin-resistant transformant.
Subsequently, after the transformant cell line thus obtained was cultured in a 24-well plate [produced by Corning Costar Corporation, USA], a cell line in which the luciferase was expressed and induced, i.e., PPARγ: RXRα: 4ERPP/CHO-K1 cell was selected by the addition of 10 μM pioglitazone hydrochloride.

Row | SMILES | glucose-lowering action (%) (KKA^y mice) | lipid-lowering action (%) (KKA^y mice) | melting point [°C] | EC50 (PPARγ-RXRα heterodimer) [nM]
1 | O=C(O)c1ccc(-c2ccc(-c3ccc(C(F)(F)F)cc3)o2)cc1 [Example 10, 4-[5-(4-trifluoromethylphenyl)-2-furyl]benzoic acid] | 37 | 62 | 270 to 271 | 3.8
2 | O=C(O)c1ccc(-c2ccc(-c3ccc(Cl)cc3)s2)cc1 [Example 15, 4-[5-(4-chlorophenyl)-2-thienyl]benzoic acid] | 30 | 54 | 285 to 286 | 22
3 | COC(=O)c1ccc(-c2nnc(-c3ccc(C(F)(F)F)cc3)s2)cc1 [Example 58, methyl 4-[5-(4-trifluoromethylphenyl)-1,3,4-thiadiazol-2-yl]benzoate] | 37 | 48 | 218 to 219 | 
